This is an account of results in patent US20160287558A1, “ORAL PHARMACEUTICAL FORM FOR PREVENTING VASCULAR DISEASES, TABLET AS PHARMACEUTICAL FORM AND GELATIN CAPSULE AS PHARMACEUTICAL FORM” (HYPERMARCAS S.A., priority 2013, published 2016).

For data set [1] the following is noted: ALLHAT study; cited from earlier work.
The next data set relates to carbonic anhydrase. The settings on record: cited from earlier work.
On data set [2], the source says: The dissolution curves represent the expression of the release mechanism of active principles within the pharmaceutical form. Thus, it is possible to modulate the release to protect the active pharmaceutical principle, besides of improving the solubilization conditions. Excipients are used to optimize the behavior of the active pharmaceutical principle.

`NS(=O)(=O)c1cc2c(cc1Cl)NCNS2(=O)=O` [hydrochlorothiazide]: the “efficacy and prevention of cardiovascular complications compared with other drugs” value in data set [1] is “as effective as other drugs and further prevents more cardiovascular complications than other drugs”. Moreover, the “inhibition of carbonic anhydrase” value with carbonic anhydrase is on record as “very weak inhibitors”.

As for `CCCCc1nc(Cl)c(CO)n1Cc1ccc(-c2ccccc2-c2nn[nH]n2)cc1` [losartan], the solubility in water entry in data set [2] was “freely soluble”.
